{"source": "patent US7829711B2", "about": "“Crystalline materials of 1-(4-benzoyl-piperazin-1-yl)-2-[4-methoxy-7-(3-methyl-[1,2,4]triazol-1-yl)-1H-pyrrolo[2,3-C]pyridine-3-yl]-ethane-1,2-dione” (Bristol-Myers Squibb Company, priority 2004, dated 2010)", "type_in_all_cases": "physicochemical", "key": {"[1]": {"experiment": "Aqueous solubility of Form P-1", "details": "aqueous medium"}, "[2]": {"experiment": "pKa of Form P-1"}, "[3]": {"experiment": "Hygroscopicity of Form P-1"}, "[4]": {"experiment": "Solvent mediated polymorphic transformation (suspension of P-1 crystals in solvents)", "details": "room temperature or elevated temperature"}}, "data": [{"smiles": "COc1cnc(-n2cnc(C)n2)c2[nH]cc(C(=O)C(=O)N3CCN(C(=O)c4ccccc4)CC3)c12", "note": "[Form P-1, 1-(4-benzoyl-piperazin-1-yl)-2-[4-methoxy-7-(3-methyl-[1,2,4]triazol-1-yl)-1H-pyrrolo[2,3-c]pyridin-3-yl]-ethane-1,2-dione]", "values": [{"measurement": "solubility", "setting": "[1]; 25 °C, pH 5.7, aqueous buffer", "value": 2.7, "unit": "µg/mL"}, {"measurement": "solubility", "setting": "[1]; aqueous buffer, pH 8.6, 25° C.", "value": 14, "unit": "µg/mL"}, {"measurement": "solubility", "setting": "[1]; simulated gastric fluid, pH 1.4, 25° C.", "value": 12, "unit": "µg/mL"}, {"measurement": "pKa", "setting": "[2]", "value": 8.4}, {"measurement": "Hygroscopicity: maximum water uptake", "setting": "[3]; at 90% RH", "value": "RH and 3.2% maximum water uptake at 90% RH)"}, {"measurement": "Hygroscopicity", "setting": "[3]; result in words", "value": "Low hygroscopicity"}, {"measurement": "Hygroscopicity: weight gain", "setting": "[3]; under 30-60% RH", "value": 1, "unit": "%"}, {"measurement": "Phase conversion on suspension in various solvents", "setting": "[4]", "value": "did not show any phase conversion"}]}]}
